In a melting point compilation (Tetko et al.):

Compound	melting point [°C]
Cc1ccc(C(=O)CBr)cc1C	63 to 65
Cc1cc(NS(=O)(=O)c2cccc(C#N)c2)no1	159 to 161
CC(CCOc1ccccc1)C(=O)O (centres undefined)	76 to 78
CC(C)(C)C1=NN(c2ccccc2)C(=O)C1=CCl	89 to 91
Cc1ccc(-c2nnc(CCC(=O)O)o2)cc1	169 to 171
O=Cc1cn(-c2ccccc2)nc1-c1ccc(Br)cc1	141 to 143
OCc1nnc(-c2ccccc2Cl)o1	101 to 103
O=C(O)C(Oc1ccc(Cl)cc1)c1ccccc1 (centres undefined)	161 to 163
O=C1NCCC=C1Cl	76 to 78
O=C(CCl)N(c1ccccc1)C1CCS(=O)(=O)C1 (centres undefined)	208 to 210
CC(=O)c1c[nH]c(C(=O)N2CCCC(CO)C2)c1 (centres undefined)	146 to 148
CC(C)(C)OC(=O)N1CCc2cc(N)ccc21	84 to 86
Cc1ccc(C(=O)c2c(N)sc3c2CCC3)cc1F	177 to 179
CC(Cl)C(=O)Nc1ccc2c(c1)OCCCO2 (centres undefined)	97 to 99
O=C(O)c1cnoc1-c1cccs1	198 to 200
NC(=O)C1CCCN1Cc1ccccc1N (centres undefined)	121 to 123
Clc1cc2nn[nH]c2cc1Cl	249 to 251
NNC(=O)c1ccccn1	95 to 100
Cc1nc(N)[nH]c(=O)c1CC(=O)O	313 to 315
O=C(O)c1ccn(Cc2ccccc2)c1	150 to 152
Sc1nnc(-c2ccccc2)c2ccccc12	178 to 180
CC(C)NC(=O)C(=O)NN	158 to 160

Compound	melting point [°C]
CCOC(=O)c1[nH]cnc1N	129 to 131
CNC1CCCCNC1=O (centres undefined)	234 to 236
Sc1cnnc2ccccc12	80 to 82
CC(C)(C)OC(=O)N1CCC(OC(=O)c2ccc(N)cc2)CC1	147 to 149
COCCn1cc(C(=O)O)ccc1=O	185 to 187
BrCCCOc1ccc2ccccc2c1	56 to 58
CC1=NN(C)C(=O)C1C (centres undefined)	132 to 134
Nc1ccn(-c2ccncc2)n1	192 to 194
N#CCC(=O)c1c[nH]c2cc(F)ccc12	265 to 267
Cc1nc(-c2ccc(O)cc2)no1	186 to 188
N#Cc1cccc(-n2ccnc2)n1	97 to 99
CC(C)Cn1cnc2c1c(=O)[nH]c(=O)n2Cc1ccccc1	179 to 181
O=C(O)c1cc(O)nc2ccc(Br)cc12	355 to 357
O=C(O)c1cc(=O)n(Cc2ccccc2)c2ccccc12	215 to 217
Cc1cc(C)n(-c2ccc(C(=O)O)cn2)n1	241 to 243
Cc1sc2nc(CN3CCOCC3)nc(Cl)c2c1C	102 to 104
COC(=O)c1cc(C(=O)OC)cc(-n2c(C)cc(C(=O)CCl)c2C)c1	153 to 155
CCN(CC)C1=NC(=O)C(CC(=O)Nc2cccc(C(=O)O)c2)S1 (centres undefined)	236 to 238
O=C(CC(=O)C(F)(F)F)c1ccncc1	255 to 257
NC(=O)c1cccc2cccnc12	168 to 170
Cc1nn2c(CO)c(C)nc2s1	129 to 131

Results, then the molecule that gave them:

melting point [°C]	Compound
94 to 96	Cc1cc(N)n(Cc2ccccn2)n1
91 to 93	COC(=O)c1ccc2ccn(C)c2c1
106 to 108	O=S(=O)(c1ccc(Cl)nc1)N(Cc1ccccc1)Cc1ccccc1
151 to 153	O=C1C=C(Br)C(=O)N1
190 to 192	O=C(O)c1cccc(S(=O)(=O)NCc2ccco2)c1
35 to 37	COC(=O)CCOc1ccc(Cl)cc1Cl
149 to 151	CCOC(=O)/C(C#N)=C/Nc1ccc(Br)cc1
49 to 51	COC(=O)c1sccc1O
103 to 105	COc1cccc(C(N)=NO)c1
111 to 113	CC1(C)Cc2cccc(OCC(=O)O)c2O1
119 to 121	NN=c1ncc(F)c[nH]1
93 to 95	Cc1c(Cl)nn2c(C(F)(F)F)nnc2c1C
134 to 136	CC(C)(C)OC(=O)c1nnsc1N
225 to 227	N#Cc1ccc(NCC(=O)O)cc1
257 to 259	O=C(O)c1cc2c(=O)n3ccccc3nc2n1Cc1ccccc1
84 to 86	O=C(O)CCc1nnc(-c2ccccc2I)o1
273 to 275	Nc1nnc(-c2ccc(Br)cc2)o1
134 to 136	Cc1cc(C)nc(-n2nc(N)cc2C)n1
79 to 81	O=Cc1ccc(Oc2cnccn2)cc1
52 to 54	O=Cc1c(O)cccc1Cl
135 to 137	NS(=O)(=O)c1ccc2c(c1)CCCC2

melting point [°C]	Compound
139 to 141	O=C(O)CNC(=O)c1ccc(F)cc1F
118 to 120	COc1ccc(CCl)cc1S(C)(=O)=O
151 to 153	CC(C(N)=NO)n1ccnc1 (centres undefined)
239 to 241	Cn1cc(NS(=O)(=O)c2ccsc2C(=O)O)cn1
182 to 184	COC(=O)c1c(C(=O)OC)c(-c2ccc(N)cc2)n2c1CCC2
264 to 266	NC(=O)CNC(=O)c1ccc(O)cc1
194 to 196	CCOC(=O)c1cc2c(F)cc(Br)cc2[nH]1
139 to 141	O=Cc1c[nH]nc1-c1ccc(Cl)cc1
157 to 159	Cn1ccnc1SCc1cccc(C(=O)O)c1
161 to 163	O=C1CNc2cccc(F)c2N1
31 to 33	Cn1cc(C=O)cn1
97 to 99	O=C(Nc1ccccc1F)C1CSCN1 (centres undefined)
230 to 232	CC1Sc2ccc(C(=O)O)cc2NC1=O (centres undefined)
201 to 203	CCC(=O)N1CCc2cc(C(=O)CCl)ccc21
240 to 242	NS(=O)(=O)c1ccc2c(c1)C(=O)NCC2
53 to 55	O=C(NCC(F)(F)F)OCC(F)(F)F
106 to 108	CNC(=O)c1cccnc1Cl
265 to 267	O=C(O)c1c[nH]c(=O)cn1
87 to 89	COC(=O)c1oc(CO)cc1C
29 to 31	O=C(CC(F)(F)F)c1ccc(F)cc1
278 to 280	Oc1ccc(-n2cnc3ccccc32)cc1

melting point [°C]	Compound
128 to 130	Nc1c(F)ccc(Br)c1C(=O)O
79 to 81	CN(CCCNC(=O)CCl)S(C)(=O)=O
236 to 238	CC(C)Cn1c(S)nc2scc(-c3cccs3)c2c1=O
181 to 183	O=C(O)CCS(=O)(=O)c1ccc(Cl)cc1
94 to 96	O=C1NC(=O)C2CC12 (centres undefined)
124 to 126	NNC(=O)NC1CCCC1
166 to 168	N#Cc1c(N)sc2c1-c1ccccc1CC2
225 to 227	CC(=O)Nc1ccc(S(=O)(=O)N(C)CC(=O)O)cc1
201 to 203	O=C1CCCN1c1cccc(O)c1
152 to 154	Nc1cccc(N2CCOC2=O)c1
156 to 160	O=C(CCl)Nc1cccc(S(=O)(=O)N=C2CCCN2)c1
250 to 252	COc1ccc2c(C)cc(NN)nc2c1
150 to 152	Cc1nc(-c2ccc(N)cc2)oc1C
48 to 50	CCOC(=O)c1cc(C2CC2)nc2onc(C(C)C)c12
119 to 121	Nc1ccc(F)c(NC(=O)CCN2CCOCC2)c1
83 to 85	CC(Cl)C(=O)NCC1CCCCC1 (centres undefined)
139 to 141	CC(C)(C)OC(=O)Nc1ccoc1
138 to 140	Nc1ccc(CC2CC(=O)NC2=O)cc1 (centres undefined)
340 to 342	O=C(O)c1cc(-c2ccncc2)nc2ccc(Br)cc12
